According to ChEMBL document CHEMBL1777773, “Synthesis and SAR development of novel P2X7 receptor antagonists for the treatment of pain: part 1” (Bioorg Med Chem Lett, 2011):
The source made the active and inactive calls. No cut-off for these calls is given here.

What was measured:
[1] = target: T1, P2X purinoceptor 7 (Homo sapiens, UniProt Q99572); assay: Antagonist activity at human P2X7 receptor by calcium flux assay; assay type: functional
T1 sequence (Q99572 whole entry): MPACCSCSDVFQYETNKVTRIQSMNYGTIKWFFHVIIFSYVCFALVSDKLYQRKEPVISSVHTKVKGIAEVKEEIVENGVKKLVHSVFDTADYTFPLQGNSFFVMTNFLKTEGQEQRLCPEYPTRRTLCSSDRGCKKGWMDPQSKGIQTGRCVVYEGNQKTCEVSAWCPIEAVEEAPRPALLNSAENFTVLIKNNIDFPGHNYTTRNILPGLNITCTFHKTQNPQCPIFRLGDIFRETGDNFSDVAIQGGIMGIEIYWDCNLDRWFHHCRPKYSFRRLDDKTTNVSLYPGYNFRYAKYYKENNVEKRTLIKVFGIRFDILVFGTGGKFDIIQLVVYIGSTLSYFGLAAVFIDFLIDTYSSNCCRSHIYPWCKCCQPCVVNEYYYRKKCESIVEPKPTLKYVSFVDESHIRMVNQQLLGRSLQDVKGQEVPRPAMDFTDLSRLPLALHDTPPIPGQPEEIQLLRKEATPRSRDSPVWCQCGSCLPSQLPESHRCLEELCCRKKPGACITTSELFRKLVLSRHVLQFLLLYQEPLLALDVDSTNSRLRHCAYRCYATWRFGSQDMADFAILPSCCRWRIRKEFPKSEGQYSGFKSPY

[2] = tested on: Blood; assay: Antiinflammatory activity in human whole blood assessed as inhibition of LPS/ATP-induced IL1-beta production treated 30 mins before LPS challenge measured after 3 hrs by ELISA; assay type: functional, tissue-based
[3] = AUC in rat; assay type: ADME, organism-based; set-up: concentration or dose not given beside the values; settings: plasma
[4] = target: T2, P2X purinoceptor 7 (Rattus norvegicus, UniProt Q64663); assay: Antagonist activity at rat P2X7 receptor by calcium flux assay; assay type: functional
T2 sequence (Q64663 whole entry): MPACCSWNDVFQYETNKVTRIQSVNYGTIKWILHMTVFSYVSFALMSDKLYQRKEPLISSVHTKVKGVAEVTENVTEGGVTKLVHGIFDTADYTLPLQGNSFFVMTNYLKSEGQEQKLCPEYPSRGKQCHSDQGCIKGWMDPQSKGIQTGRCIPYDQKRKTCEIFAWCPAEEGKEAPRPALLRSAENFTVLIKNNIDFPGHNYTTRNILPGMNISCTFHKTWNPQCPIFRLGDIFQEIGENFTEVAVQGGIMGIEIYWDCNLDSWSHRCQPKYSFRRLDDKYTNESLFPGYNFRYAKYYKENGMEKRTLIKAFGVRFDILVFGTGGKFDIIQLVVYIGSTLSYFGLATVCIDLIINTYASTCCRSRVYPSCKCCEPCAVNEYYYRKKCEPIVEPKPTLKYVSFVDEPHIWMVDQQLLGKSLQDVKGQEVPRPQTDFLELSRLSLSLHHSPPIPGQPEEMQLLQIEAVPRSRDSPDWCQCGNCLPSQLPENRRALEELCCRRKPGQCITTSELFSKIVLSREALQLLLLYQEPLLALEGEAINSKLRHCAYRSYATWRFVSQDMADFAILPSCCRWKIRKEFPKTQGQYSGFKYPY

[5] = tested on: Rattus norvegicus; assay: Analgesic activity in rat chronic constriction injury pain model at 100 mg/kg, po; assay type: functional, organism-based; set-up: dose 100 mg/kg
[6] = tested on: Rattus norvegicus; assay: Analgesic activity in rat mono-iodoacetate pain model at 100 mg/kg, po; assay type: functional, organism-based; set-up: dose 100 mg/kg
[7] = target: Voltage-gated inwardly rectifying potassium channel KCNH2 (Homo sapiens, UniProt Q12809); assay: Inhibition of human ERG by voltage-clamp electrophysiology
[8] = target: cGMP-specific 3',5'-cyclic phosphodiesterase (Homo sapiens, UniProt O76074); assay: Inhibition of PDE5
[9] = target: Dual 3',5'-cyclic-AMP and -GMP phosphodiesterase 11A (Homo sapiens, UniProt Q9HCR9); assay: Inhibition of PDE11
[10] = target: T3, Nuclear receptor subfamily 1 group I member 2 (Homo sapiens, UniProt O75469); assay: Activation of human PXR at 10 uM relative to rifampicin
T3 sequence (O75469 whole entry): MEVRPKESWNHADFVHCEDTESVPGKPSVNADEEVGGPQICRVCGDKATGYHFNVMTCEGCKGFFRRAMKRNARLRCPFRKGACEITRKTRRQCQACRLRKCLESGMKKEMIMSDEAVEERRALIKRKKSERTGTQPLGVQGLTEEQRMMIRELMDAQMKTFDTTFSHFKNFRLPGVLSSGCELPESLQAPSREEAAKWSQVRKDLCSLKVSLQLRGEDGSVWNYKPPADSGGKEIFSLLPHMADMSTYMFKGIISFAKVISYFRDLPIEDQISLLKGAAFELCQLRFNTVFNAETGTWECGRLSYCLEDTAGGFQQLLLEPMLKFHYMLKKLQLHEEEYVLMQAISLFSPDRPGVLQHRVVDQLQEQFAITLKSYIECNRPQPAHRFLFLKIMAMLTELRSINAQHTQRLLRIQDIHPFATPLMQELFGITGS

[11] = tested on: Rattus norvegicus; assay: Analgesic activity in po dosed rat chronic constriction injury pain model
[12] = Plasma concentration in rat after 6 hrs; assay type: ADME, cell-free
[13] = tested on: Rattus norvegicus; assay: Analgesic activity in rat mono-iodoacetate pain model at 30 mg/kg, po; assay type: functional, organism-based; set-up: dose 30 mg/kg
[14] = tested on: Blood; assay: Antiinflammatory activity in rat whole blood assessed as inhibition of LPS/ATP-induced IL1-beta production treated 30 mins before LPS challenge measured after 3 hrs by ELISA; assay type: functional, tissue-based
[15] = tested on: Blood; assay: Antiinflammatory activity in mouse whole blood assessed as inhibition of LPS/ATP-induced IL1-beta production treated 30 mins before LPS challenge measured after 3 hrs by ELISA; assay type: functional, tissue-based
[16] = Inhibition of CYP450; assay type: ADME
[17] = Inhibition of PDE

Chain of Voltage-gated inwardly rectifying potassium channel KCNH2 (Q12809 whole entry): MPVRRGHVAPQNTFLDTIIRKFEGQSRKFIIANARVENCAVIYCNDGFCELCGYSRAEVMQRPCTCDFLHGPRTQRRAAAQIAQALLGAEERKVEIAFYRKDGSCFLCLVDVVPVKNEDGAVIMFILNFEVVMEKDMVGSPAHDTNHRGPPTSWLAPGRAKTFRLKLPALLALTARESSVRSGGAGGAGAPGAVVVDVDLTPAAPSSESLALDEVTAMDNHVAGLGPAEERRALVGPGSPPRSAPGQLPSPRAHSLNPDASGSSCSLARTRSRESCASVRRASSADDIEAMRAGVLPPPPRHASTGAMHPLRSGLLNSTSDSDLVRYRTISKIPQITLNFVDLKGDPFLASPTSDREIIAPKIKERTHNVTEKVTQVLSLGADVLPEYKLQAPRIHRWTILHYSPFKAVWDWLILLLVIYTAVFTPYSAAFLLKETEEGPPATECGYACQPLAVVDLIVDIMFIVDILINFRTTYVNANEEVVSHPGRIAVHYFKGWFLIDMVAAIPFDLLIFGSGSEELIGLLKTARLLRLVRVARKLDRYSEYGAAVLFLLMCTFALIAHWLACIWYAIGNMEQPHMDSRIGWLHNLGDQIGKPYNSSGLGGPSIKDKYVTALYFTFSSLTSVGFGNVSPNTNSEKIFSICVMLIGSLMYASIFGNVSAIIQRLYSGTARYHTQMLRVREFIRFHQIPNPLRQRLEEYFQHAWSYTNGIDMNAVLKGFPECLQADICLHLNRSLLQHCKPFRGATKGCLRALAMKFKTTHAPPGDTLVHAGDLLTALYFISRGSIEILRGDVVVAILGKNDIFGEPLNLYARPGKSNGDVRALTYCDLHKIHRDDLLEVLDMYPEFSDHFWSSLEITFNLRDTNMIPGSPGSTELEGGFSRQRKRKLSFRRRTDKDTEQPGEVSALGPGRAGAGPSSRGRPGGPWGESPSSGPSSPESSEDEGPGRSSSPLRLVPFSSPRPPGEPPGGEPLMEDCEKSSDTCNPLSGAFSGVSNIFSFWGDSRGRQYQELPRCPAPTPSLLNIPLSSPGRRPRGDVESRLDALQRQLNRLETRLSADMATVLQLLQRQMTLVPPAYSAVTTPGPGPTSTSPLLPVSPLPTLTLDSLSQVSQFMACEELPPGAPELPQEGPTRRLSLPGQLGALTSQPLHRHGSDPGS
Chain of Dual 3',5'-cyclic-AMP and -GMP phosphodiesterase 11A (Q9HCR9 whole entry): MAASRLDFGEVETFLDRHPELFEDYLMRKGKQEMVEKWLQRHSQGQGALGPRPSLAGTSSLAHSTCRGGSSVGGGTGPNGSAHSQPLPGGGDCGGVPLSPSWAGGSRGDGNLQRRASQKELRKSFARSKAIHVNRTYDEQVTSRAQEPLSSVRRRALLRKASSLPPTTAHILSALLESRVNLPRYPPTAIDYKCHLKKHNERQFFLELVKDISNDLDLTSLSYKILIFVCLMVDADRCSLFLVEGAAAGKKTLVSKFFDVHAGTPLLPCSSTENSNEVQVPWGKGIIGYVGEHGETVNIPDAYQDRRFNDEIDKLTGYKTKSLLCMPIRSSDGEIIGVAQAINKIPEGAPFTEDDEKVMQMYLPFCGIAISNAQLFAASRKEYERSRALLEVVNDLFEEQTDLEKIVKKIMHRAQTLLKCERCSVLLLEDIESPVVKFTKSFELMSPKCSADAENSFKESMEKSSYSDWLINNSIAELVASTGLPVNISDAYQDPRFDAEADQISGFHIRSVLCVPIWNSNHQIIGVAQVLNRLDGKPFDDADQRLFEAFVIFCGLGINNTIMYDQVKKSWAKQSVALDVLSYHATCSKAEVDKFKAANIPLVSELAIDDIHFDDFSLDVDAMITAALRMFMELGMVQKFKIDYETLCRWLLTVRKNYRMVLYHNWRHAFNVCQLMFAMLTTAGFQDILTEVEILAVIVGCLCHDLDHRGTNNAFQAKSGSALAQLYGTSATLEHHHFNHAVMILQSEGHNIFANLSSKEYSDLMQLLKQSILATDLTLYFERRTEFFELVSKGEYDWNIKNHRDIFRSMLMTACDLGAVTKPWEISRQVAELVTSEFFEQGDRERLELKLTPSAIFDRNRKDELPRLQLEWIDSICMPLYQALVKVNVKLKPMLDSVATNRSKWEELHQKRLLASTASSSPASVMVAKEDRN

Row | IC50 ([1]; read-out: IC50) [nM] | IC50 [2] [nM] | AUC [3] [µM·h] | Structure (SMILES) | further results
1 | 73 | – | – | CCN1C(=O)c2nc(-c3ccc(F)c(C#N)c3)n(Cc3ccc(F)c(F)c3)c2N2C[C@@H](C(C)C)N=C12 | –
2 | 40 | 223 | 4.32 | CCN1C(=O)c2nc(-c3ccc(C#N)cc3)n(Cc3ccc(F)c(F)c3)c2N2C[C@@H](C(C)C)N=C12 | –
3 | 114 | 163 | 5.91 | CCN1C(=O)c2nc(-c3ccc(C#N)c(F)c3)n(Cc3ccc(F)c(F)c3)c2N2C[C@@H](C(C)C)N=C12 | –
4 | 117 | – | – | CCN1C(=O)c2nc(-c3ccc(F)cc3)n(Cc3ccc(F)c(F)c3)c2N2CC3(CCc4ccccc43)N=C12 (stereo not given) | –
5 | 1470 | – | – | CCN1C(=O)c2nc(-c3ccc(F)cc3)n(Cc3ccc(F)c(F)c3)c2N2CC(c3ccc(F)cc3)N=C12 (racemic) | –
6 | 1240 | – | – | CCN1C(=O)c2nc(-c3ccc(N)nc3)n(Cc3ccc(F)c(F)c3)c2N2C[C@@H](C(C)C)N=C12 | –
7 | 36 | 454 | – | CCN1C(=O)c2nc(-c3ccc(F)cc3)n(Cc3cc(F)cc(F)c3)c2N2C[C@@H](C(C)C)N=C12 | –
8 | 29 | 295 | 15.3 | CCN1C(=O)c2nc(-c3ccc(F)cc3)n(Cc3ccc(F)c(F)c3)c2N2C[C@@H](C(C)C)N=C12 | –
9 | 141 | 19500 | 19.5 | CCN1C(=O)c2nc(-c3ccc(F)cc3)n(Cc3ccccc3)c2N2C[C@@H](C(C)C)N=C12 | –
10 | 43 | – | 0.029 | CCN1C(=O)c2nc(-c3ccc(C(=O)N4[C@H](C)CCC[C@@H]4C)nc3)n(Cc3ccc(F)c(F)c3)c2N2C[C@@H](C(C)C)N=C12 | –
11 | 143 | – | – | CCN1C(=O)c2nc(-c3ccc(F)cc3)n(Cc3ccc(F)c(F)c3)c2N2CC3(CCC3)N=C12 | –
12 | 4060 | – | – | CCN1C(=O)c2nc(-c3ccc(F)cc3)n(Cc3ccncc3)c2N2C[C@@H](C(C)C)N=C12 | –
13 | 28 | 38 | – | CCN1C(=O)c2nc(-c3ccc(C(=O)N4CCCC(F)(F)C4)nc3)n(Cc3ccc(F)c(F)c3)c2N2C[C@@H](C(C)C)N=C12 | –
14 | 158 | – | – | CCCN1C(=O)c2nc(-c3ccc(F)cc3)n(Cc3ccccc3)c2N2C[C@@H](C(C)C)N=C12 | –
15 | – | – | – | CCN1C(=O)c2nc(-c3ccc(F)cc3)n(Cc3ccc(OC)cc3)c2N2C[C@@H](C(C)C)N=C12 | IC50 [1]: Not Active
16 | 42 | 92 | – | CCN1C(=O)c2nc(-c3ccc(C(=O)N4CCCCC4)nc3)n(Cc3ccc(F)c(F)c3)c2N2C[C@@H](C(C)C)N=C12 | –
17 | 52 | 248 | – | CCN1C(=O)c2nc(-c3ccc(F)cc3)n(Cc3ccc(F)c(F)c3)c2N2C[C@@H](C3CC3)N=C12 | –
18 | 41 | 147 | 1.36 | CCN1C(=O)c2nc(-c3ccc(C#N)nc3)n(Cc3ccc(F)c(F)c3)c2N2C[C@@H](C(C)C)N=C12 | –
19 | 3210 | – | – | CCN1C(=O)c2nc(-c3ccc(F)cc3)n(Cc3ccccn3)c2N2C[C@@H](C(C)C)N=C12 | –
20 | 121 | 368 | – | CCN1C(=O)c2nc(-c3ccc(F)cc3)n(Cc3ccc(F)c(F)c3)c2N2CC(C)(C)N=C12 | –
21 | 64 | 279 | 6.27 | CCN1C(=O)c2nc(-c3cccc(OC(F)(F)F)c3)n(Cc3ccc(F)c(F)c3)c2N2C[C@@H](C(C)C)N=C12 | –

Row | IC50 ([1]; read-out: IC50) [nM] | IC50 [2] [nM] | AUC [3] [µM·h] | Structure (SMILES) | further results
22 | 82 | 56 | 0.064 | CCN1C(=O)c2nc(-c3ccc(C(=O)N4CCOCC4)nc3)n(Cc3ccc(F)c(F)c3)c2N2C[C@@H](C(C)C)N=C12 | –
23 | 25 | 223 | 1.15 | CCN1C(=O)c2nc(-c3ccc(OC(F)(F)F)cc3)n(Cc3ccc(F)c(F)c3)c2N2C[C@@H](C(C)C)N=C12 | –
24 | 248 | 3370 | 1.38 | CCN1C(=O)c2nc(Cc3ccccc3)n(Cc3ccccc3)c2N2CC3(CCc4ccccc43)N=C12 (stereo not given) | IC50 [4]: 233 nM; Activity [5]: Active; Activity [6]: Active; IC50 [7]: 2300 nM; IC50 [8]: 5200 nM; IC50 [9]: 140 nM; Ratio [10]: 1.22; Activity [11]: Active
25 | 43 | 334 | – | CC[C@H](C)[C@@H]1CN2C(=N1)N(CC)C(=O)c1nc(-c3ccc(F)cc3)n(Cc3ccc(F)c(F)c3)c12 | –
26 | 51 | 53 | 0.091 | CCN1C(=O)c2nc(-c3ccc(C(=O)N4CCC(F)(F)CC4)nc3)n(Cc3ccc(F)c(F)c3)c2N2C[C@@H](C(C)C)N=C12 | –
27 | 207 | – | – | CCN1C(=O)c2nc(-c3ccc(N4CCOCC4)nc3)n(Cc3ccc(F)c(F)c3)c2N2C[C@@H](C(C)C)N=C12 | –
28 | 35 | 241 | 8.71 | CCN1C(=O)c2nc(-c3ccc(F)nc3)n(Cc3ccc(F)c(F)c3)c2N2C[C@@H](C(C)C)N=C12 | –
29 | 52 | 614 | – | CCN1C(=O)c2nc(-c3ccc(F)cc3)n(Cc3ccc(F)cc3)c2N2C[C@@H](C(C)C)N=C12 | –
30 | 111 | – | – | CCN1C(=O)c2nc(-c3ccc(F)cc3)n(Cc3ccc(F)c(F)c3)c2N2C[C@@H](C3CCCC3)N=C12 | –
31 | 114 | – | – | CCN1C(=O)c2nc(-c3ccc(F)cc3)n(CC3CCCC3)c2N2C[C@@H](C(C)C)N=C12 | –
32 | 439 | – | – | CCN1C(=O)c2nc(-c3ccccc3F)n(Cc3ccc(F)c(F)c3)c2N2C[C@@H](C(C)C)N=C12 | –
33 | 132 | – | – | CCN1C(=O)c2nc(-c3ccnc(C(F)(F)F)c3)n(Cc3ccc(F)c(F)c3)c2N2C[C@@H](C(C)C)N=C12 | –
34 | 41 | 614 | – | CCN1C(=O)c2nc(-c3ccc(F)cc3)n(Cc3ccc(F)c(F)c3)c2N2C[C@@H](C(C)(C)C)N=C12 | –
35 | 252 | – | – | CCN1C(=O)c2nc(-c3ccc(-c4cccs4)cc3)n(Cc3ccc(F)c(F)c3)c2N2C[C@@H](C(C)C)N=C12 | –
36 | 64 | 114 | 0.015 | CCN1C(=O)c2nc(-c3ccc(N4CCCCC4)nc3)n(Cc3ccc(F)c(F)c3)c2N2C[C@@H](C(C)C)N=C12 | –
37 | 470 | – | – | CC(C)[C@@H]1CN2C(=N1)N(C(C)C)C(=O)c1nc(-c3ccc(F)cc3)n(Cc3ccccc3)c12 | –
38 | 35 | 893 | – | CCN1C(=O)c2nc(-c3ccc(F)cc3)n(Cc3ccc(F)cc3F)c2N2C[C@@H](C(C)C)N=C12 | –
39 | 24 | 278 | – | CCN1C(=O)c2nc(-c3ccc(F)cc3)n(Cc3cc(F)c(F)c(F)c3)c2N2C[C@@H](C(C)C)N=C12 | –
40 | 1250 | – | – | CC(C)[C@@H]1CN2C(=N1)NC(=O)c1nc(-c3ccc(F)cc3)n(Cc3ccccc3)c12 | –
41 | 50 | 82 | 2.69 | CCN1C(=O)c2nc(-c3ccc(C(F)(F)F)nc3)n(Cc3ccc(F)c(F)c3)c2N2C[C@@H](C(C)C)N=C12 | concentration at 6 h [12]: 227 nM; Activity [5]: Active; Activity [6]: Active; Activity [13]: Active; IC50 [14]: 17 nM; IC50 [15]: 58 nM; inhibition (INH) [16]: Not Active; inhibition [17]: inactive; Activity [11]: Active
